According to US10064832B2, “Kartogenin-conjugated chitosan particles with improved sustained release property and biocombatibility, and use thereof” (priority 2014, dated 2018):

System: osteoarthritis model rats
Experiment: Osteoarthritis regeneration after intra-articular injection in osteoarthritis animal model
Type: in vivo
Conditions: injected into knee joints at 6 and 9 weeks after surgery, euthanized at 14 weeks
Description: The rats were euthanized at 14 weeks, and joint tissues were separated and fixed in 10% paraformaldehyde, and then treated with 6% nitric acid for to decalcification. The tissues were embedded in a Tissue-Tek O.C.T. compound (Sakura Finetek Japan Co., Ltd.), sectioned to 10 μm and attached to a slide glass, and thereafter, staining with Safranin-O/fast green and immunofluorescence of collagen type II (COL2A1) and aggrecan were performed.

Q: How did the “COL2 protein (immunofluorescent staining)” value turn out when `O=C(O)c1ccccc1C(=O)Nc1ccc(-c2ccccc2)cc1` [kartogenin] was run?
A: Its value is “noticeable reduction”.

Q: And the “aggrecan protein (immunofluorescent staining)” value?
A: Its value is “noticeable reduction”.

Q: What about the “cartilage histology (Safranin-O/fast green)” value of the same molecule?
A: Its value is “weak vertical matrix cracks in a deep area of cartilage and loss and surface peeling of cartilage”.
